From US9499493B2, “2,4-pyrimidinediamine compounds and their uses” (Rigel Pharmaceuticals, Inc., priority 2002, dated 2016)

Key:
[1] = tested on: cultured human mast cells (CHMC); assay: CHMC low cell density IgE activation: tryptase assay; assay type: cell-based; settings: anti-IgE
In short: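 Degranulation is read as supernatant tryptase activity, using tryptase substrate incubated 30 min at room temperature. Before this, CHMC at low density (1000-1500 cells/well) rest 1 hr at 37° C and are triggered with anti-IgE for 30 min at 37° C.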

[2] = tested on: cultured human mast cells (CHMC); assay: CHMC low cell density ionomycin activation: tryptase assay; assay type: cell-based

Row | SMILES | IC50 [1] [µM] | IC50 [2] [µM] | IC50 ([1]; Homo sapiens, Mast cell) [µM] | IC50 ([2]; Homo sapiens, Mast cell) [µM]
1 | CNC(=O)COc1cccc(Nc2ncc(F)c(Nc3ccc4c(c3)N(C)C(=O)CO4)n2)c1 [R909260, 5-Fluoro-N2-[3-(N-methylaminocarbonylmethyleneoxy)phenyl]-N4-[6-(N-methyl-1,4-benzoxazin-3-onyl)]pyrimidinediamine] | 1.04 | > 10 |  | 
2 | CNC(=O)COc1cccc(Nc2ncc(F)c(Nc3ccc4c(c3)OCC(=O)N4C)n2)c1 [R909261] | 0.93 | > 10 |  | 
3 | O=C1COc2ccc(Nc3ncc(F)c(Nc4cccc(O)c4)n3)cc2N1 [R909268, N2-(1,4-Benzoxazin-3-on-6-yl)-5-fluoro-N4-(3-hydroxyphenyl)-2,4-pyrimidinediamine] | 0.071 | > 10 |  | 
4 | CCOC(=O)COc1cccc(Nc2ncc(F)c(Nc3ccc4c(c3)NC(C)(C)CO4)n2)c1 [R909308] | 0.671 | > 10 |  | 
5 | CNC(=O)COc1cccc(Nc2ncc(F)c(Nc3ccc4c(c3)NC(C)(C)CO4)n2)c1 [R909309, N4-(3,3-Dimethyl-1,4-benzoxazin-6-yl)-5-fluoro-N2-[3-(N-methylaminocarbonylmethyleneoxy)phenyl]-2,4-pyrimidinediamine] | 0.083 | > 10 |  | 
6 | FC(F)(F)c1cnc(Nc2ccc3c(c2)OCCO3)nc1Nc1ccc2c(c1)OCCO2 [R920669] | 0.42 | > 10 |  | 
7 | CCOc1ccc(Nc2nc(Nc3ccc4c(c3)OCCO4)ncc2F)cc1 [R920670, N4-(4-ethyloxyphenyl)-N2-(3,4-ethylenedioxyphenyl)-5-fluoro-2,4-pyrimidinediamine] | 2.18 | > 10 |  | 
8 | Oc1cccc(Nc2nc(Nc3ccc(OCc4nnn[nH]4)cc3)ncc2F)c1 [R920818, 5-Fluoro-N4-(3-hydroxyphenyl)-N2-[4-(1,2,3,4-tetrazol-5-yl)methyleneoxyphenyl]-2,4-pyrimidinediamine] | > 10 | > 10 |  | 
9 | Oc1cccc(Nc2ccnc(Nc3ccc(OCc4nn[nH]n4)cc3)n2)c1 [R920819, N4-(3-Hydroxyphenyl)-N2-[4-(1H,1,2,3,4-tetrazol-5-yl)methyleneoxyphenyl]-2,4-pyrimidinediamine] | 10 | > 10 |  | 
10 | Cc1cnc(Nc2ccc(OCc3nnn[nH]3)cc2)nc1Nc1cccc(O)c1 [R920820, N4-(3-Hydroxyphenyl)-5-methyl-N2-[4-(1H,1,2,3,4-tetrazol-5-yl)methyleneoxyphenyl]-2,4-pyrimidinediamine] | > 10 | > 10 |  | 
11 | Oc1cccc(Nc2nc(Nc3ccc(OCc4nnn[nH]4)cc3)ncc2C(F)(F)F)c1 [R920846] |  |  | > 10 | > 10
12 | Cn1nnnc1COc1ccc(Nc2ncc(F)c(Nc3cccc(O)c3)n2)cc1 [R920860, 5-Fluoro-N4-(3-hydroxyphenyl)-N2-[4-(1-methyl-1,2,3,4-tetrazol-5-yl)methyleneoxyphenyl]-2,4-pyrimidineamine] | 1.01 | > 10 |  | 
13 | Cn1nnnc1COc1ccc(Nc2ncc(F)c(Nc3cccc(O)c3)n2)cc1 [R920861, 5-Fluoro-N4-(3-hydroxyphenyl)-N2-[4-(1-methyl-1,2,3,4-tetrazol-5-yl)methyleneoxyphenyl]-2,4-pyrimidineamine] | 0.598 | > 10 |  | 
14 | Cc1cnc(Nc2ccc(OCc3nnn(C)n3)cc2)nc1Nc1cccc(O)c1 [R920893, N4-(3-Hydroxyphenyl)-5-methyl-N2-[4-(2-methyl-1,2,3,4-tetrazol-5-yl)methyleneoxyphenyl]-2,4-pyrimidineamine] | 1.24 | > 10 |  | 
15 | Cc1cnc(Nc2ccc(OCc3nnnn3C)cc2)nc1Nc1cccc(O)c1 [R920894, N4-(3-Hydroxyphenyl)-5-methyl-N2-[4-(1-methyl-1,2,3,4-tetrazol-5-yl)methyleneoxyphenyl]-2,4-pyrimidineamine] | 0.888 | 5.57 |  | 
16 | Cn1nnc(COc2ccc(Nc3nccc(Nc4cccc(O)c4)n3)cc2)n1 [R920910, N4-(3-Hydroxyphenyl)-N2-[4-(2-methyl-1,2,3,4-tetrazol-5-yl)methyleneoxyphenyl]-2,4-pyrimidineamine] | 0.751 | 7.92 |  | 
17 | Cn1nnnc1COc1ccc(Nc2nccc(Nc3cccc(O)c3)n2)cc1 [R920917, N4-(3-hydroxyphenyl)-N2-[4-(1-methyl-1,2,3,4-tetrazol-5-yl)methyleneoxyphenyl]-2,4-pyrimidineamine] | 1.58 | 9.73 |  | 
18 | CN(C)C(=O)COc1cccc(Nc2ncc(F)c(Nc3ccc4c(c3)OCCO4)n2)c1 [R925755, N4-(3,4-Ethylenedioxyphenyl)-N2-[3-(N,N-dimethylamino)carbonylmethyleneoxyphenyl]-5-fluoro-2,4-pyrimidinediamine] | 0.898 | > 10 |  | 

Row | SMILES | IC50 [1] [µM] | IC50 [2] [µM] | IC50 ([1]; Homo sapiens, Mast cell) [µM] | IC50 ([2]; Homo sapiens, Mast cell) [µM]
19 | C[C@H](Nc1nc(Nc2ccc3c(c2)OCCO3)ncc1F)[C@H](O)c1ccccc1 [R925766, N2-(3,4-Ethylendioxyphenyl)-5-fluoro-N4-[(2R)-hydroxy-(1S)-methyl-2-phenylethyl)-2,4-pyrimidinediamine] | 8.9 | > 10 |  | 
20 | CCOC(=O)COc1ccc(Nc2ncc(-c3nnn[nH]3)c(Nc3ccc(OCC(=O)OCC)cc3)n2)cc1 [R925810, N2,N4-Bis(4-ethoxycarbonylmethyleneoxyphenyl)-5-(1,2,3,4-tetrazol-5-yl)-2,4-pyrimidinediamine] | > 10 | > 10 |  | 
21 | CCOC(=O)c1cnc(Nc2ccc(OCC(=O)NCC3CC3)cc2)nc1Nc1cccc(O)c1 [R925838, N2-[4-(N-Cyclopropylmethylamino)carbonylmethyleneoxyphenyl]-5-ethoxycarbonyl-N4-(3-hydroxyphenyl)-2,4-pyrimidinediamine] | > 10 | > 10 |  | 
22 | CCOC(=O)c1cnc(Nc2ccc(OCC(=O)NC)cc2)nc1Nc1cccc(O)c1 [R925839, 5-Ethoxycarbonyl-N4-(3-hydroxyphenyl)-N2-[4-(N-methylamino)carbonylmethyleneoxyphenyl]-2,4-pyrimidinediamine] | > 10 | > 10 |  | 
23 | CCOC(=O)c1cnc(Nc2ccc(OCC(=O)NCC(O)CO)cc2)nc1Nc1cccc(O)c1 (stereo not drawn) [R925840, N2-[4-(N-2,3-Dihydroxypropylamino)carbonylmethyleneoxyphenyl]-5-ethoxycarbonyl-N4-(3-hydroxyphenyl)-2,4-pyrimidinediamine] | > 10 | > 10 |  | 
24 | COc1cccc(CNC(=O)COc2ccc(Nc3ncc(Br)c(Nc4ccc(OCC(=O)NCc5cccc(OC)c5)cc4)n3)cc2)c1 [R925841, N2,N4-Bis[4-[N-(3-methoxybenzylamino)carbonylmethyleneoxy]phenyl]-5-bromo-2,4-pyrimidinediamine] | > 10 | > 10 |  | 
25 | O=C(COc1ccc(Nc2nc(Nc3cccc(O)c3)ncc2Br)cc1)NCC1CC1 [R925842] | 7.3 | > 10 |  | 
26 | COc1cccc(CNC(=O)COc2ccc(Nc3nc(Nc4cccc(O)c4)ncc3Br)cc2)c1 [R925843, 5-Bromo-N2-(3-hydroxyphenyl)-N4-[4-(N-3-methoxybenzylamino)carbonylmethyleneoxyphenyl]-2,4-pyrimidinediamine] | > 10 | > 10 |  | 
27 | CNC(=O)COc1ccc(Nc2ncc(C#N)c(Nc3cccc(O)c3)n2)cc1 [R925844, 5-Cyano-N4-(3-hydroxyphenyl)-N2-[4-(N-methylamino)carbonylmethyleneoxyphenyl]-2,4-pyrimidinediamine] | 5.1 | > 10 |  | 
28 | N#Cc1cnc(Nc2cccc(O)c2)nc1Nc1ccc(OCC(=O)NCC2CC2)cc1 [R925845, 5-Cyano-N4-[4-(N-cyclopropylmethylamino)carbonylmethyleneoxyphenyl]-N2-(3-hydroxyphenyl)-2,4-pyrimidinediamine] | 2.3 | > 10 |  | 
29 | N#Cc1cnc(Nc2ccc(OCC(=O)NCC(O)CO)cc2)nc1Nc1cccc(O)c1 (stereo not drawn) [R925846, 5-Cyano-N4-(3-hydroxyphenyl)-N2-[4-(N-2,3-dihydroxypropylamino)carbonylmethyleneoxyphenyl]-2,4-pyrimidinediamine] | > 10 | > 10 |  | 
30 | CNC(=O)COc1ccc(Nc2nc(Nc3ccc4c(c3)OCCO4)ncc2Br)cc1 [R925851, 5-Bromo-N2-(3,4-ethylenedioxyphenyl)-N4-[4-(N-methylamino)carbonylmethyleneoxyphenyl]-2,4-pyrimidinediamine] | 0.925 | > 10 |  | 
31 | CCCNC(=O)COc1ccc(Nc2ncc(C#N)c(Nc3ccc(OCC(=O)NCCC)cc3)n2)cc1 [R925853, N2,N4-Bis[4-(N-n-propylamino)carbonylmethyleneoxyphenyl]-5-cyano-2,4-pyrimidinediamine] | > 10 | > 10 |  | 
32 | N#Cc1cnc(Nc2ccc(OCC(=O)N3CCOCC3)cc2)nc1Nc1ccc(OCC(=O)N2CCOCC2)cc1 [R925854, N2,N4-Bis[4-(N-morphonlino)carbonylmethyleneoxyphenyl]-5-cyano-2,4-pyrimidinediamine] | > 10 | > 10 |  | 
33 | N#Cc1cnc(Nc2ccc(OCC(=O)N3CCCCC3)cc2)nc1Nc1ccc(OCC(=O)N2CCCCC2)cc1 [R925855, N2,N4-Bis[4-(N-piperidino)carbonylmethyleneoxyphenyl]-5-cyano-2,4-pyrimidinediamine] | 4.2 | > 10 |  | 
34 | CCOC(=O)CNc1nc(Nc2ccc(OCC(=O)OCC)cc2)nc(C(=O)OCC)c1[N+](=O)[O-] [R925858, 6-Ethoxycarbonyl-N4-(ethoxycarbonylmethyl)-N2-(4-ethoxycarbonylmethyleneoxyphenyl)-5-nitro-2,4-pyrimidinediamine] | 8.05 | 7.3 |  | 
35 | N#Cc1cnc(Nc2ccc(OCC(=O)NCC3CC3)cc2)nc1Nc1ccc(OCC(=O)NCC2CC2)cc1 [R925859, N2,N4-Bis[4-(N-cyclopropylmethylamino)carbonylmethyleneoxyphenyl]-5-cyano-2,4-pyrimidinediamine] | > 10 | > 10 |  | 
36 | CCCCNC(=O)COc1ccc(Nc2ncc(C#N)c(Nc3ccc(OCC(=O)NCCCC)cc3)n2)cc1 [R925860, N2,N4-Bis[4-(N-n-butylamino)carbonylmethyleneoxyphenyl]-5-cyano-2,4-pyrimidinediamine] | > 10 | > 10 |  | 
